Tests used:
[1] = tested on: patients with mild or moderate dementia; assay: Exploratory Phase 2 trial NE3107-TRP-001 (ADAS-Cog 11, GRC, PHQ-9); assay type: in vivo, human; set-up: key to ADAS-Cog-11 score at 3M: ADAS-Cog11 score 0-70; higher = more severe cognitive impairment; conditions: for Patient Global Rating of Change (GRC): Month 3, scale −5 to 5; for ADAS-Cog-11 Change: baseline to 3M, decrease = improvement
Protocol: An exploratory Phase 2 trial of 17α-ethynylandrost-5-ene-3β,7β,17β-triol (NE3107-TRP-001) in 23 patients with mild (n=17) or moderate dementia (n=6) were conducted. Comparisons between baseline and post-intervention (3 months) were evaluated via multi-modal brain magnetic resonance images (MRIs; primary endpoints), measures of glucose and insulin homeostasis, and neuropsychological testing (secondary endpoints).
The interview results were compared with changes from baseline to Month 3 in cognitive functioning as measured by the ADAS-Cog11, and the patient-completed Global Rating of Change (GRC) at Month 3 in the Phase 2 trial (Table 8).
The ADAS-Cog 11 is a performance-based assessment of cognitive function that includes 11 patient-completed tasks that measure word recall, objective/figure naming, command following, constructional praxis, ideational praxis, orientation, word recognition, test direction recall, spoken language, comprehension, and word-finding difficulty. Scores range from 0-70 where higher scores indicate more severe cognitive impairment (i.e., decreases in score over time indicate improvement in cognition). The GRC is a single item that asks patients to rate changes in their condition, abilities, and overall sense of well-being from the start of the trial. Scores range from −5 (“Very much worse”) to 0 (“Unchanged”) to +5 (“Very much better”).

[2] = tested on: subjects with dementia; assay: Trial in subjects with dementia (CDR 1-2, MMSE 14-24), Aptus positive and negative; assay type: in vivo, human
Text: In a trial, the relationship between Clinical Dementia Rating Scale (CDR) and Mini Mental State Exam (MMSE) scores with measures of obesity, including Body Mass Index (BMI), Waist Circumference (WC), and waist-to-hip ratio (W/H) was explored with administration of 17α-ethynylandrost-5-ene-3β,7β,17β-triol. The trial sought to explore the anti-inflammatory and insulin sensitizing activity of 17α-ethynylandrost-5-ene-3β,7β,17β-triol in subjects with dementia, using inclusion criteria of the CDR levels 1-2 and the MMSE scores of 14-24 for inclusion criteria.
In this trial, the correlation between CDR (1-2) and MMSE (14-24) scores and the presence or absence of amyloid by the Aptus test, and also the presence of absence of metabolic inflammation using markers of obesity and metabolic inflammation was explored.
With Aptus data available for 96 subjects that met the criteria for CDR and MMSE, only 35 subjects (36%) met the Aptus criteria. When measures of obesity were examined, BMI was available for 149 subjects. Due to the age-related decrease in muscle mass, only 60 (40%) of the subjects met the CDC criteria (male BMI >40, Female BMI >35) for obesity. These restrictions would severely limit enrollment. […]

Structure (SMILES): C#C[C@]1(O)CC[C@H]2[C@@H]3[C@@H](O)C=C4C[C@@H](O)CC[C@]4(C)[C@H]3CC[C@@]21C [17α-ethynylandrost-5-ene-3β,7β,17β-triol, 17-ethynyl-10R, 13S-dimethyl 2,3,4,7, 8R, 9S, 10, 11, 12, 13, 14S, 15, 16, 17-hexadecahydro-1H-cyclopenta[a]phenanthrene-3R, 7R, 17S-triol]
- increase in ADAS-Cog 11 score, where not decreased ([1]; all interviewed patients, 3-month follow up, 3.1 to 3.8 points = clinically significant worsening): < 3.1 points
- mean PHQ-9 score decrease ([1]; change from baseline): 4.3 points
- improvement in depression symptoms (PHQ-9) ([1]; patients with baseline PHQ-9 score ≥5): greatest improvement in depression symptoms
- individual PHQ-9 domains (apathy, depressive symptoms, sleep disturbance, fatigue, eating disorders, low self-esteem) ([1]; patients with baseline PHQ-9 score ≥5 compared to all patients): greater improvement, compared to all patients
- Global Rating of Change (GRC) ([1]; patients with mild dementia, 3 months): improvements on the Global Rating of Change
- ADAS-Cog 11 decrease ([1]; patients with mild dementia, baseline vs 3 months, p=0.0046): 2.6 point
- Patient Global Rating of Change (GRC) ([1]; subject N-02-22): −5
- ADAS-Cog-11 score at 3M ([1]; subject N-02-22, baseline 5.00): 5.67
- ADAS-Cog-11 Change ([1]; subject N-02-22): +0.67
- Patient Global Rating of Change (GRC) ([1]; subject N-03-22): 3.5
- ADAS-Cog-11 score at 3M ([1]; subject N-03-22, baseline 11.33): 6.00
- ADAS-Cog-11 Change ([1]; subject N-03-22): −5.33
- Patient Global Rating of Change (GRC) ([1]; subject N-07-22): 1
- ADAS-Cog-11 score at 3M ([1]; subject N-07-22, baseline 19.33): 14.67
- ADAS-Cog-11 Change ([1]; subject N-07-22): −4.67
- Comparison (ADAS-Cog 11/GRC/Interview) ([1]; subject N-10-22): +/−/NC
- Patient Global Rating of Change (GRC) ([1]; subject N-10-22): −1
- ADAS-Cog-11 score at 3M ([1]; subject N-10-22, baseline 5.00): 2.33
- ADAS-Cog-11 Change ([1]; subject N-10-22): −2.67
- Comparison (ADAS-Cog 11/GRC/Interview) ([1]; subject N-14-22): +/+/NC
- Patient Global Rating of Change (GRC) ([1]; subject N-14-22): 2
- ADAS-Cog-11 score at 3M ([1]; subject N-14-22, baseline 14.00): 9.00
- ADAS-Cog-11 Change ([1]; subject N-14-22): −5.00
- Patient Global Rating of Change (GRC) ([1]; subject N-16-22): 4
- ADAS-Cog-11 score at 3M ([1]; subject N-16-22, baseline 21.00): 11.00
- ADAS-Cog-11 Change ([1]; subject N-16-22): −10.00
- Patient Global Rating of Change (GRC) ([1]; subject N-17-22): 4
- ADAS-Cog-11 score at 3M ([1]; subject N-17-22, baseline 6.67): 9.33
- ADAS-Cog-11 Change ([1]; subject N-17-22): +2.67
- Patient Global Rating of Change (GRC) ([1]; subject N-18-22): 4
- ADAS-Cog-11 score at 3M ([1]; subject N-18-22, baseline 10.00): 8.67
- ADAS-Cog-11 Change ([1]; subject N-18-22): −1.33
- Patient Global Rating of Change (GRC) ([1]; subject N-20-22): 3
- ADAS-Cog-11 score at 3M ([1]; subject N-20-22, baseline 4.00): 3.33
- ADAS-Cog-11 Change ([1]; subject N-20-22): −0.67
- Patient Global Rating of Change (GRC) ([1]; subject N-22-22): 5
- ADAS-Cog-11 score at 3M ([1]; subject N-22-22, baseline 27.67): 29.00
- ADAS-Cog-11 Change ([1]; subject N-22-22): +1.33
- Patient Global Rating of Change (GRC) ([1]; subject N-23-22): 3
- ADAS-Cog-11 score at 3M ([1]; subject N-23-22, baseline 9.33): 10.00
- ADAS-Cog-11 Change ([1]; subject N-23-22): +0.67
- cognition [2]: improvements in cognition independent of amyloid beta positivity
